PubChem BioAssay (NCI)
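Each compound was tested at five concentrations against cells in 96-well plates for 48 hours. TGI: concentration producing complete growth inhibition.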

Experiments:
Assay in all cases: growth of human tumour cells (NCI), 48 h
NCI-H226 lung = test system: NCI-H226 lung
T-47D breast = test system: T-47D breast
OVCAR-3 ovarian = test system: OVCAR-3 ovarian
NCI-H460 lung = test system: NCI-H460 lung
COLO 205 colon = test system: COLO 205 colon
786-0 renal = test system: 786-0 renal
M14 melanoma = test system: M14 melanoma
U251 CNS = test system: U251 CNS
A549 NSCLC = test system: A549 NSCLC
TK-10 renal = test system: TK-10 renal
HS 578T breast = test system: HS 578T breast
HCT-116 colon = test system: HCT-116 colon
EKVX NSCLC = test system: EKVX NSCLC
NCI-H522 lung = test system: NCI-H522 lung
MOLT-4 leukemia = test system: MOLT-4 leukemia
KM12 colon = test system: KM12 colon
SW-620 colon = test system: SW-620 colon
RXF 393 renal = test system: RXF 393 renal
OVCAR-4 ovarian = test system: OVCAR-4 ovarian
HCT-15 colon = test system: HCT-15 colon
SK-MEL-2 melanoma = test system: SK-MEL-2 melanoma
SNB-19 CNS = test system: SNB-19 CNS
UACC-257 melanoma = test system: UACC-257 melanoma
OVCAR-5 ovarian = test system: OVCAR-5 ovarian
RPMI-8226 leukemia = test system: RPMI-8226 leukemia
BT-549 breast = test system: BT-549 breast
DU-145 prostate = test system: DU-145 prostate
NCI-H23 lung = test system: NCI-H23 lung
MDA-N = test system: MDA-N
SK-MEL-5 melanoma = test system: SK-MEL-5 melanoma
HL-60(TB) leukemia = test system: HL-60(TB) leukemia
MCF7 breast = test system: MCF7 breast
LOX IMVI melanoma = test system: LOX IMVI melanoma
NCI/ADR-RES ovarian = test system: NCI/ADR-RES ovarian
HOP-62 NSCLC = test system: HOP-62 NSCLC
K-562 leukemia = test system: K-562 leukemia
MDA-MB-435 = test system: MDA-MB-435
MALME-3M melanoma = test system: MALME-3M melanoma
HT29 colon = test system: HT29 colon
SF-295 CNS = test system: SF-295 CNS
UO-31 renal = test system: UO-31 renal
SF-268 CNS = test system: SF-268 CNS
SK-MEL-28 melanoma = test system: SK-MEL-28 melanoma
CAKI-1 renal = test system: CAKI-1 renal
UACC-62 melanoma = test system: UACC-62 melanoma
CCRF-CEM leukemia = test system: CCRF-CEM leukemia
PC-3 prostate = test system: PC-3 prostate
SN12C renal = test system: SN12C renal
MDA-MB-231 breast = test system: MDA-MB-231 breast
A498 renal = test system: A498 renal
ACHN renal = test system: ACHN renal
IGROV1 ovarian = test system: IGROV1 ovarian
OVCAR-8 ovarian = test system: OVCAR-8 ovarian
SK-OV-3 ovarian = test system: SK-OV-3 ovarian
SNB-75 CNS = test system: SNB-75 CNS
HOP-92 NSCLC = test system: HOP-92 NSCLC
SR leukemia = test system: SR leukemia
HCC-2998 colon = test system: HCC-2998 colon
SF-539 CNS = test system: SF-539 CNS

In the case of `Cc1cccc(N2C(=O)C3c4[nH]c5ccccc5c4C4CCC(C(C)(C)C)CC4C3C2=O)c1` (stereo unspecified), the TGI (NCI-H226 lung) is reported as 34.1 µM, the TGI (T-47D breast) is reported as > 100 µM and the TGI (OVCAR-3 ovarian) is reported as 27.4 µM. It also gave a TGI (NCI-H460 lung) of 19 µM, a TGI (COLO 205 colon) of 24.2 µM and a TGI (786-0 renal) of 12.2 µM. For the same molecule, the TGI (M14 melanoma) was 28.3 µM, the TGI (U251 CNS) was 47.8 µM and the TGI (A549 NSCLC) was 22.3 µM. The TGI (TK-10 renal) was 27.2 µM, the TGI (HS 578T breast) was 29.2 µM and the TGI (HCT-116 colon) was 21.2 µM. For the same molecule, the TGI (EKVX NSCLC) was 31.4 µM, the TGI (NCI-H522 lung) was 24.3 µM and the TGI (MOLT-4 leukemia) was 21.3 µM. The TGI (KM12 colon) was 25.2 µM, the TGI (SW-620 colon) was 24.1 µM and the TGI (RXF 393 renal) was 26.3 µM. For the same molecule, the TGI (OVCAR-4 ovarian) was 25.7 µM, the TGI (HCT-15 colon) was > 100 µM and the TGI (SK-MEL-2 melanoma) was 34.4 µM. The TGI (SNB-19 CNS) was 26 µM, the TGI (UACC-257 melanoma) was 44.6 µM and the TGI (OVCAR-5 ovarian) was 35.2 µM. For the same molecule, the TGI (RPMI-8226 leukemia) was 25.8 µM, the TGI (BT-549 breast) was 33.5 µM and the TGI (DU-145 prostate) was 33.4 µM. For the same molecule, the TGI (NCI-H23 lung) was 30.1 µM, the TGI (MDA-N) was 30.7 µM and the TGI (SK-MEL-5 melanoma) was 28.4 µM. The TGI (HL-60(TB) leukemia) was > 100 µM, the TGI (MCF7 breast) was 24.5 µM and the TGI (LOX IMVI melanoma) was 12.9 µM. For the same molecule, the TGI (NCI/ADR-RES ovarian) was 32.2 µM, the TGI (HOP-62 NSCLC) was 13.3 µM and the TGI (K-562 leukemia) was 17.4 µM. It also gave a TGI (MDA-MB-435) of 29.6 µM, a TGI (MALME-3M melanoma) of 28 µM and a TGI (HT29 colon) of 28.9 µM. For the same molecule, the TGI (SF-295 CNS) was 21.9 µM, the TGI (UO-31 renal) was 28.6 µM and the TGI (SF-268 CNS) was 13.7 µM. It also gave a TGI (SK-MEL-28 melanoma) of 31.4 µM, a TGI (CAKI-1 renal) of 26.1 µM and a TGI (UACC-62 melanoma) of 49 µM. It also gave a TGI (CCRF-CEM leukemia) of 23.5 µM, a TGI (PC-3 prostate) of 24.8 µM and a TGI (SN12C renal) of 30.5 µM. The TGI (MDA-MB-231 breast) was 21.3 µM, the TGI (A498 renal) was 25.8 µM and the TGI (ACHN renal) was 17.7 µM. The TGI (IGROV1 ovarian) was 16.4 µM and the TGI (OVCAR-8 ovarian) was 13.3 µM.

With `C[C@@H]1C(=O)C[C@H]2C(C)(C)CCC[C@]2(C)[C@@]1(O)CCc1ccoc1` the TGI (NCI-H226 lung) was > 100 µM, the TGI (T-47D breast) was > 100 µM and the TGI (OVCAR-3 ovarian) was > 100 µM. For the same molecule, the TGI (NCI-H460 lung) was > 100 µM, the TGI (COLO 205 colon) was > 100 µM and the TGI (786-0 renal) was > 100 µM. For the same molecule, the TGI (M14 melanoma) was > 100 µM, the TGI (U251 CNS) was > 100 µM and the TGI (A549 NSCLC) was > 100 µM. The TGI (TK-10 renal) was > 100 µM, the TGI (HS 578T breast) was > 100 µM and the TGI (HCT-116 colon) was > 100 µM. The TGI (EKVX NSCLC) was > 100 µM, the TGI (NCI-H522 lung) was > 100 µM and the TGI (MOLT-4 leukemia) was > 100 µM. The TGI (SK-OV-3 ovarian) was > 100 µM, the TGI (KM12 colon) was > 100 µM and the TGI (SNB-75 CNS) was > 100 µM. The TGI (SW-620 colon) was > 100 µM, the TGI (RXF 393 renal) was > 100 µM and the TGI (OVCAR-4 ovarian) was > 100 µM. The TGI (HCT-15 colon) was > 100 µM, the TGI (SK-MEL-2 melanoma) was > 100 µM and the TGI (SNB-19 CNS) was > 100 µM. The TGI (UACC-257 melanoma) was > 100 µM, the TGI (OVCAR-5 ovarian) was > 100 µM and the TGI (RPMI-8226 leukemia) was > 100 µM. The TGI (BT-549 breast) was > 100 µM, the TGI (DU-145 prostate) was > 100 µM and the TGI (NCI-H23 lung) was > 100 µM. The TGI (MDA-N) was > 100 µM, the TGI (SK-MEL-5 melanoma) was > 100 µM and the TGI (HL-60(TB) leukemia) was > 100 µM. For the same molecule, the TGI (MCF7 breast) was > 100 µM, the TGI (LOX IMVI melanoma) was > 100 µM and the TGI (HOP-92 NSCLC) was > 100 µM. For the same molecule, the TGI (HOP-62 NSCLC) was > 100 µM, the TGI (K-562 leukemia) was > 100 µM and the TGI (MDA-MB-435) was > 100 µM. For the same molecule, the TGI (SR leukemia) was > 100 µM, the TGI (MALME-3M melanoma) was > 100 µM and the TGI (HCC-2998 colon) was > 100 µM. For the same molecule, the TGI (HT29 colon) was > 100 µM, the TGI (SF-295 CNS) was > 100 µM and the TGI (UO-31 renal) was > 100 µM. For the same molecule, the TGI (SF-268 CNS) was > 100 µM, the TGI (SK-MEL-28 melanoma) was > 100 µM and the TGI (CAKI-1 renal) was > 100 µM. For the same molecule, the TGI (UACC-62 melanoma) was > 100 µM, the TGI (CCRF-CEM leukemia) was > 100 µM and the TGI (PC-3 prostate) was > 100 µM. The TGI (SN12C renal) was > 100 µM, the TGI (MDA-MB-231 breast) was > 100 µM and the TGI (A498 renal) was > 100 µM. The TGI (ACHN renal) was > 100 µM, the TGI (IGROV1 ovarian) was > 100 µM and the TGI (SF-539 CNS) was > 100 µM. The TGI (OVCAR-8 ovarian) was > 100 µM.
